Read-outs that look alike come from different tables or passages of the source.
What was measured:
A549 cells [1] = settings: 2% or 4% PFA for 15 min, thoroughly washed out
Procedure: An experiment was therefore conducted to see what if any effect PFA had on cellular ATP content and whether it would still be possible to detect ATP in fixed tissue/cells. Four groups of cells were tested: • Group 1 was not pretreated with PFA (control). • Group 2 was treated with 2% PFA. • Group 3 was pretreated with 2% PFA that was then washed out. • Group 4 was pretreated with 4% PFA that was then washed out.
The experiment was conducted as follows. For each group, A549 cells (Catalog No. CCL-185, ATCC, Manassas, VA, USA) were plated in 96-well plates (200 μl/well) with 8 replicates of 1,000 cells in 50 μl cell culture medium per well (DMEM/F12 plus 10% human serum). Cells in group 1, the control group, was not treated with PFA. Cells in groups 2, 3, and 4 were incubated for 15 min. with 2%, 2%, and 4% PFA, respectively. PFA remained in the wells of group 2 and PFA was removed from groups 3 and 4 by washing 3 times with 100 μl Cell culture medium. Luciferase catalyzed ATP luminescence was measured as per CellTiter-Glo 3D manufacturer's instructions.
Luminescence was measured with a BioTek Synergy LX plate reader (Agilent, Santa Clara, CA, U.S.A.) and calculations were performed to quantify, measure, and/or correlate ATP level with cell viability.
We also used relative luminescence unit (RLU) as arbitrary units to calculate ATP level to cell viability.

A549 cells [2] = system: A549 cells
Procedure: Furthermore, since serum contains proteins, we wanted to know whether incubating and washing with serum could neutralize any potentially residual effect of PFA on ATP measurements. Thus, we created a 4×4 factorial design to expose the cells with 0.0625%, 0.25%, 1%, or 4% of PFA and 0%, 1%, 5%, or 25% of human serum.
For this experiment, A549 cells were plated in 96-well plates with 4 replicates of in 100 μl per well (cell culture medium was DMEM/F12 plus 10% human serum). Cells were fixed with the PFA concentrations for 5 min and washed 3× with phosphate-buffered saline (PBS).
The cells were then incubated at various serum concentrations for 10 min and then washed twice with PBS. Finally, luciferase catalyzed ATP luminescence was measured as per manufacturer's instructions.

luciferase = system: luciferase
Procedure: We assessed four groups of A549 cells: with 0.0625% PFA, 0.25% PFA, 1% PFA, and 4% PFA, each of them at 0%, 1%, 5%, or 25% of human serum. For each group, A549 cells were plated in 96 well plates with 4 replicates of 1,000 cells at 100 μl per well. The cell culture medium was DMEM/F12 plus 10% human serum. Luciferase-catalyzed ATP luminescence was then measured using the CellTiter-Glo assay per manufacturer's instructions.
A combination of PFA and serum mixture was then created using a 4×4 factorial design of 0.0625%, 0.25%, 1%, or 4% of PFA, and 0%, 1%, 5%, or 25% of human serum, and incubated for 15 min at room temperature. The mixture was then added to the wells and a second round of RLU measurements were taken within 5 min.

A549 cells [3] = assay: ATP release into extracellular fluid or after lysis buffer, with or without Triton X, after PFA; format: cell-based
Procedure: In a factorial design, the cells were a) treated with 0%, 0.2%, or 1% PFA, and b) treated with or without 0.5% Triton X. ATP was then measured either from the extracellular fluids or within the wells after the use of a cell lysis buffer.
One out of 3 wells were incubated with 0%, 0.2%, and 1% PFA for 15 minutes and PFA was washed out 3 times with PBS. Half of the wells were then treated with 0.5% Triton X for 10 minutes and the other half received no Triton. The extracellular fluid from half of the 0.5% Triton X treated wells was then transferred to another well-plate and ATP was measured using a luciferin/luciferase complex. The other half of the 0.5% Triton X treated wells were first treated with a lysis buffer and then ATP was measured using the same luciferin/luciferase complex.

[4] = 2% to 4% formalin

Compound: paraformaldehyde [PFA]
- ATP luminescence compared with the control group (A549 cells [1]): less than half of the control group
- RLU (ATP luminescence) Avg. (A549 cells [2]; PFA 0.06%, average over serum levels): 47,729 RLU
- RLU (ATP luminescence) (A549 cells [2]; PFA 0.06%, serum 0%): 39,815 RLU
- RLU (ATP luminescence) (A549 cells [2]; PFA 0.06%, serum 1%): 46,022 RLU
- RLU (ATP luminescence) (A549 cells [2]; PFA 0.06%, serum 5%): 51,674 RLU
- RLU (ATP luminescence) (A549 cells [2]; PFA 0.06%, serum 25%): 53,405 RLU
- RLU (ATP luminescence) Avg. (A549 cells [2]; PFA 0.25%, average over serum levels): 58,470 RLU
- RLU (ATP luminescence) (A549 cells [2]; PFA 0.25%, serum 0%): 44,249 RLU
- RLU (ATP luminescence) (A549 cells [2]; PFA 0.25%, serum 1%): 61,899 RLU
- RLU (ATP luminescence) (A549 cells [2]; PFA 0.25%, serum 5%): 59,651 RLU
- RLU (ATP luminescence) (A549 cells [2]; PFA 0.25%, serum 25%): 68,082 RLU
- RLU (ATP luminescence) Avg. (A549 cells [2]; PFA 1%, average over serum levels): 40,598 RLU
- RLU (ATP luminescence) (A549 cells [2]; PFA 1%, serum 0%): 38,892 RLU
- RLU (ATP luminescence) (A549 cells [2]; PFA 1%, serum 1%): 45,576 RLU
- RLU (ATP luminescence) (A549 cells [2]; PFA 1%, serum 5%): 34,194 RLU
- RLU (ATP luminescence) (A549 cells [2]; PFA 1%, serum 25%): 43,731 RLU
- RLU (ATP luminescence) Avg. (A549 cells [2]; PFA 4%, average over serum levels): 26,464 RLU
- RLU (ATP luminescence) (A549 cells [2]; PFA 4%, serum 0%): 22,097 RLU
- RLU (ATP luminescence) (A549 cells [2]; PFA 4%, serum 1%): 34,860 RLU
- RLU (ATP luminescence) (A549 cells [2]; PFA 4%, serum 5%): 23,912 RLU
- RLU (ATP luminescence) (A549 cells [2]; PFA 4%, serum 25%): 24,987 RLU
- RLU (ATP luminescence) Avg. (A549 cells [2]; average over PFA concentrations, serum 0%): 36,263 RLU
- RLU (ATP luminescence) Avg. (A549 cells [2]; average over PFA concentrations, serum 1%): 47,089 RLU
- RLU (ATP luminescence) Avg. (A549 cells [2]; average over PFA concentrations, serum 5%): 42,358 RLU
- RLU (ATP luminescence) Avg. (A549 cells [2]; average over PFA concentrations, serum 25%): 47,551 RLU
- RLU (ATP luminescence) Avg. (A549 cells [2]; average over all PFA concentrations and serum levels): 43,315 RLU
- luciferase activity blocked (luciferase; 1% PFA): about 90%
- luciferase activity blocked (luciferase; 4% PFA): almost completely blocked
- change of RLUs (luciferase; up to 0.25% PFA added to the CellTiter-Glo solution): did not change the RLUs
- ATP released into the extracellular fluid (A549 cells [3]; 0.2% and 1% PFA, then 0.5% Triton X, same effect after cell lysis buffer): inhibited in a dose-dependent manner
- ATP leakage into the extracellular fluid (A549 cells [3]; 0.2% or 1% PFA, without Triton X): neither 0.2% nor 1% PFA lead to some ATP leakage

Compound: C=O [formalin]
- ATP still detectable in lysed cells after fixation [4]: almost half

Compound: Triton X
- ATP release (A549 cells [3]; 0.5% Triton X alone for 10 minutes, no PFA, RLUs similar to lysis buffer): complete ATP release

From patent US12312631B1, “High-throughput multiplexed sensitivity and resistance assay” (SAGEMEDIC CORPORATION, priority 2022, dated 2025)
